Measurements: PMC3485312, “A Phage Display Selected 7-mer Peptide Inhibitor of the Tannerella forsythia Metalloprotease-Like Enzyme Karilysin can be Truncated to Ser-Trp-Phe-Pro” (PLoS ONE, 2012)
Residues, ends and D or L forms follow the SMILES beside them.

Assays:
[1] = target: T1, Kly18 (Karilysin catalytic domain) (Tannerella forsythia, UniProt D0EM77); assay: biochemical; conditions: for Kly18 inhibitory activity, single concentration screen: 87 µM peptide
T1 construct: Karilysin catalytic domain (Kly18) and intact Kly48 were produced as previously described; made in house
T1 sequence (D0EM77 35-195): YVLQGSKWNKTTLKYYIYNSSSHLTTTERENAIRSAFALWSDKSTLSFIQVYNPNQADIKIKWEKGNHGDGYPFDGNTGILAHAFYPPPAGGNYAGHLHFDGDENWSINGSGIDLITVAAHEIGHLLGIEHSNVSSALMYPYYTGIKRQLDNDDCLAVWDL
Experimental: (§1) Kly18 and Kly48 protease activities were monitored essentially as described. One hundred µl working volumes were used in black untreated polypropylene microtitre plates and FITC-casein was used as the substrate. Assays were performed at 37°C using 500 nM of Kly18 (or Kly48) in assay buffer (100 mM Tris-HCl, 5mM CaCl2, pH 8.0), at a FITC-casein concentration of 25 µg/ml. […] Peptides were dissolved in Milli Q water and added in varying molarities. The assay setup was as follows; Kly18 (or Kly48) was diluted in assay buffer together with peptide, followed by 30 minutes incubation on a vertical shaker at 22°C. Then FITC-casein was added and fluorescence formation was monitored at 37°C for 90 minutes with measurements every ten minutes.

[2] = target: T1, Kly18 (Karilysin catalytic domain); conditions: cited from earlier work
Description: The development of MMP inhibitors is highly relevant, due to the involvement of MMPs in several pathologies. Some candidate molecules act by blocking the MMP-active sites via binding to the catalytic Zn^2+ through chelators such as hydroxamate. These approaches have been successful for MMP inhibition. However, the inhibitors have a broad specificity towards other MMPs due to very similar active site geometries of matrix metalloproteinases. An alternative approach to specific MMP inhibitor design is to utilize larger molecules, such as peptides, that interact with the activ ...

intact Karilysin (Kly48) = target: T2, intact Karilysin (Kly48) (Tannerella forsythia, UniProt D0EM77); assay: Kly48 protease activity assay with FITC-casein substrate; format: biochemical; conditions: 500 nM Kly48, FITC-casein, peptide 2.3 µM to 55.6 µM; three experiments
T2 construct: made in house
T2 sequence (D0EM77 35-472): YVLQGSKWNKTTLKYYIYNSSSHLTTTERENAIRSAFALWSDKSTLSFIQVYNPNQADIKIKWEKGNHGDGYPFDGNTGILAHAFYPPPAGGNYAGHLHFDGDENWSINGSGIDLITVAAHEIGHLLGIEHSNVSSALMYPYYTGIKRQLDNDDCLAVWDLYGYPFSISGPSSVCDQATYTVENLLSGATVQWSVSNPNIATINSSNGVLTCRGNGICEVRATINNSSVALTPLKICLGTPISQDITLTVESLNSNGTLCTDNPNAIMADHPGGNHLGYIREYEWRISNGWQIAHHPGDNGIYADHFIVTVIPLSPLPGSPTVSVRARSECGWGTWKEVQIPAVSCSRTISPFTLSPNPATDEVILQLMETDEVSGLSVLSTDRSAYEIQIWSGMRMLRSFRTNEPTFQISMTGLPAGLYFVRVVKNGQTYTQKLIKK
Experimental: as §1

Karilysin (Kly48) = target: T3, Karilysin (Kly48) (Tannerella forsythia, UniProt D0EM77); assay: Auto-processing of Kly48 monitored by SDS-PAGE; format: biochemical; conditions: Kly48 13 µM, peptide 455 µM, 37°C, 50 mM Tris-HCl, 2.5 mM CaCl2, pH 8.0, up to 48 hours
T3 construct: made in house
T3 sequence (D0EM77 35-472): as above
Experimental: Karilysin (Kly48) at 13 µM was incubated at 37°C in 50 mM Tris-HCl, 2.5 mM CaCl2, 0.02% NaN3 pH 8.0 alone or in the presence of the peptide SWFPL at 455 µM. At different time points samples were withdrawn and the Kly48 autocatalytic processing was monitored by SDS-PAGE using 10% gels and the Tris-HCl/Tricine buffer system. Gels were stained with 0.1% Coomassie Brilliant Blue R-250 in 10% acetic acid followed by destaining. Samples were run alongside a Low Molecular Weight SDS-PAGE Marker.

## (NH2)-WFP-(CONH2) [15-8]
[1]; FITC-casein substrate
  Kly18 inhibitory activity, single concentration screen: lost most or all of their Kly18 inhibition capacity
[1]; FITC-casein substrate, listed as (NH2)-WFP-(CONH2)
  Kly18 inhibitory activity, single concentration screen: completely inactive

## H-WFPLRSG-NH2 [15-12]
[1]; FITC-casein substrate
  Kly18 inhibitory activity, single concentration screen: lost most or all of their Kly18 inhibition capacity

## H-WFPLRS-NH2 [15-13]
[1]; FITC-casein substrate
  Kly18 inhibitory activity, single concentration screen: lost most or all of their Kly18 inhibition capacity

## H-WFPLRSGGG-NH2 [15-10]
[1]; FITC-casein substrate
  Kly18 inhibitory activity, single concentration screen: lost most or all of their Kly18 inhibition capacity

## H-WFPLRSGG-NH2 [15-11]
[1]; FITC-casein substrate
  Kly18 inhibitory activity, single concentration screen: lost most or all of their Kly18 inhibition capacity

## H-SWFPLR-NH2 [15-5, (NH2)-SWFPLR-(CONH2)]
[1]
  Ki: 6.52 ± 0.88 µM

## O=C(O)CN(CCN(CC(=O)O)CC(=O)O)CC(=O)O [EDTA]
[2]
  Inhibition of Kly18 by small molecule chelators: inhibited

## (NH2)-WFPLR-(CONH2) [15-14]
[1]; FITC-casein substrate
  Kly18 inhibitory activity, single concentration screen: lost most or all of their Kly18 inhibition capacity

## H-SAAALRSGGGS-NH2 [control peptide, control peptide with the WFP motif replaced by a triple alanine, reference compound]
[1]; 174 µM peptide, FITC-casein substrate, two experiments
  Kly18 inhibition at very high dose: curve similar to that of Kly18 with no peptide present

## NC(=O)[C@@H]1CCCN1C(=O)[C@H](Cc1ccccc1)NC(=O)[C@H](Cc1c[nH]c2ccccc12)NC(=O)[C@@H](N)CO [15-7, (NH2)-SWFP-(CONH2)] (H-SWFP-NH2)
[1]
  Ki: 10.7 ± 2.25 µM
[1]; FITC-casein substrate
  Kly18 inhibitory activity, single concentration screen: retained efficient inhibitory potency

## H-SWFPL-NH2 [15-6, (NH2)-SWFPL-(CONH2)]
[1]
  Ki: 8.36 ± 2.34 µM
Intact Karilysin (Kly48)
  Inhibition of Kly48 proteolytic activity (dose-response): clear dose-response inhibition
Karilysin (Kly48)
  Effect on Kly48 auto-processing to Kly38 and Kly18: inhibited the auto-processesing efficiently

## H-SWAPLRSGGGS-NH2 [15-16]
[1]; FITC-casein substrate
  Kly18 inhibitory activity, single concentration screen: inactive

## (NH2)-WFPL-(CONH2) [15-15]
[1]; FITC-casein substrate
  Kly18 inhibitory activity, single concentration screen: lost most or all of their Kly18 inhibition capacity

## c1cnc2c(c1)ccc1cccnc12 [1,10-phenanthroline]
[2]
  Inhibition of Kly18 by small molecule chelators: inhibited

## H-SWFPLRSGGGS-NH2 [15-0]
[1]
  Ki: 5.34 ± 0.51 µM
